What follows are compounds tested against factor B (Homo sapiens, UniProt P00751) (assay: factor B inhibition assay of Biological Example 1). Conditions: IC50 (nM), assay of Biological Example 1 (Table 1).
Format: biochemical
Set-up: CVF-Bb complex prepared from purified cobra venom factor (1 μM), recombinant human complement factor B; made in house; host or cells: drosophila cells (factor B); E. coli (factor D used to form the complex)

Chain of factor B (P00751 260-764 limits assumed): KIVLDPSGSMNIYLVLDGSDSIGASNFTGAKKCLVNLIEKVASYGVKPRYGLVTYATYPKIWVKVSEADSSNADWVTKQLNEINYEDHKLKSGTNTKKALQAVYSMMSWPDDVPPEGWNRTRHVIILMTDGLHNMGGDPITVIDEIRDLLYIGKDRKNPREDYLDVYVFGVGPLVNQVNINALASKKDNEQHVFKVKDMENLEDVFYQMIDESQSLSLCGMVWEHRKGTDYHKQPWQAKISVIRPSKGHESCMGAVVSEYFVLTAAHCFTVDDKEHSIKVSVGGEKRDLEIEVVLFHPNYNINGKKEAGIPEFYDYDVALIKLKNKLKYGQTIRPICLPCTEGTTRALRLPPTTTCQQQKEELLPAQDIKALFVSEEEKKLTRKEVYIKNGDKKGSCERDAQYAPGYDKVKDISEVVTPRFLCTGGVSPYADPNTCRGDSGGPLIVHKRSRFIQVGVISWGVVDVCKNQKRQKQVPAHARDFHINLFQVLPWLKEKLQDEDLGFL
Chain of factor B (Q91132 23-649 partner limits assumed): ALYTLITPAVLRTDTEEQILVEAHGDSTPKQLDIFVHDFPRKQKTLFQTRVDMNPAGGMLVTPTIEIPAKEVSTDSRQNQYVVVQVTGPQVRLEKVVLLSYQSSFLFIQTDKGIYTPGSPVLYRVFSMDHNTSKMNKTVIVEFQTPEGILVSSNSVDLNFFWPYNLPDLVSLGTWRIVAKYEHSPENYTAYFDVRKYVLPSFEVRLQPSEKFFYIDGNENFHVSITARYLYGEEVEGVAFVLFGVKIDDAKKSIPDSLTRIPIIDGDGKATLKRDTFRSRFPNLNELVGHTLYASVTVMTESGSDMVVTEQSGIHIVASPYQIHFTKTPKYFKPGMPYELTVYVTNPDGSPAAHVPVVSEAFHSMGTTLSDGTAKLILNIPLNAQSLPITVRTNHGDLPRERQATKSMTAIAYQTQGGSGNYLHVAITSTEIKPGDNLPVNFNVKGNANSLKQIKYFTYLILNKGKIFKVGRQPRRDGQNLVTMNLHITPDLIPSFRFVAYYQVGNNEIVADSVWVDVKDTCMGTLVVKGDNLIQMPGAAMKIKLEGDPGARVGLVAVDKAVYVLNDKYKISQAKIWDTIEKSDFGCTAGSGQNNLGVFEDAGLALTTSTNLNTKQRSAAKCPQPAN
Chain of factor B (Q91132 733-984 partner limits assumed): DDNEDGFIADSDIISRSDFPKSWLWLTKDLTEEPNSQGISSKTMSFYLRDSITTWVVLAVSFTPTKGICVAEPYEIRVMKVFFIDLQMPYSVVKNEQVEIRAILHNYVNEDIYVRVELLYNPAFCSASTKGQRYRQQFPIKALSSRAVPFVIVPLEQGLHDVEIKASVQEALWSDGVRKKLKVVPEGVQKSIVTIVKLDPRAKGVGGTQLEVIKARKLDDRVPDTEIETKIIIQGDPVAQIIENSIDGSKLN
Chain of factor B (Q91132 1264-1642 partner limits assumed): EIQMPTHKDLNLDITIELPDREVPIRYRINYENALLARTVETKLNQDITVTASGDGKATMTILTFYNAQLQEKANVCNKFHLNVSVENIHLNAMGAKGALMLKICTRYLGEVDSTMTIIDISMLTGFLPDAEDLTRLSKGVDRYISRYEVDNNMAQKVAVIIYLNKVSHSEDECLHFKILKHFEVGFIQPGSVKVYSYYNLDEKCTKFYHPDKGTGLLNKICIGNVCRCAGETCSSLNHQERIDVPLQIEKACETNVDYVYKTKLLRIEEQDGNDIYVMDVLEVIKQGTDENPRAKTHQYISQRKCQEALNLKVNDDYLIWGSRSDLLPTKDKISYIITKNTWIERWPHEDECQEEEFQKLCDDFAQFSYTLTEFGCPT

Row | Structure (SMILES) | IC50
1 | COc1cc(C)c2[nH]cc(Cl)c2c1C(O)c1nc2cc(C#N)ccc2[nH]1 (single isomer, unassigned; (-)) [28-C b) (−), (−)-2-((3-chloro-5-methoxy-7-methyl-1H-indol-4-yl)(hydroxy)methyl)-1H-benzo[d]imidazole-5-carbonitrile] | 140 nM
2 | CCC(O)(c1nc2cc(C#N)ccc2[nH]1)c1c(OC(C)C)cc(C)c2[nH]ccc12 (single isomer, unassigned; (+)) [26-F b) (+), (+)-2-(1-hydroxy-1-(5-isopropoxy-7-methyl-1H-indol-4-yl)propyl)-1H-benzo[d]imidazole-5-carbonitrile] | 230 nM
3 | Cc1cc(S(C)(=O)=O)c(C(O)(c2nc3cc(C#N)ccc3[nH]2)C(F)(F)F)c2cc[nH]c12 (single isomer, unassigned; (+)) [14-D b) (+), (+)-2-(2,2,2-trifluoro-1-hydroxy-1-(7-methyl-5-(methylsulfonyl)-1H-indol-4-yl)ethyl)-1H-benzo[d]imidazole-5-carbonitrile] | 8410 nM
4 | Cc1cc(S(C)(=O)=O)c(C(O)c2nc3cc(C#N)ccc3[nH]2)c2cc[nH]c12 (racemic) [Example 10-C, (±)-2-(Hydroxy(7-methyl-5-(methylsulfonyl)-1H-indol-4-yl)methyl)-1H-benzo[d]imidazole-5-carbonitrile] | 1360 nM
5 | CCOc1cc(C)c2[nH]ccc2c1C(O)(c1nc2cc(C#N)ccc2[nH]1)C(F)(F)F (single isomer, unassigned) [33-C b) (tr = 3 min), 2-(1-(5-ethoxy-7-methyl-1H-indol-4-yl)-2,2,2-trifluoro-1-hydroxyethyl)-1H-benzo[d]imidazole-5-carbonitrile] | 490 nM
6 | CCc1cc(C)c2[nH]cc(C#N)c2c1Cc1nc2cc(C#N)ccc2[nH]1 [Example 90, 2-((3-Cyano-5-ethyl-7-methyl-1H-indol-4-yl)methyl)-1H-benzo[d]imidazole-5-carbonitrile] | 110 nM
7 | COc1cc(C)c2[nH]ccc2c1Cc1nc2cc(C#N)ccc2[nH]1 [Example 20-C, 2-((5-Methoxy-7-methyl-1H-indol-4-yl)methyl)-1H-benzo[d]imidazole-5-carbonitrile] | 60 nM
8 | Cc1cc(C(C)C)c(C(O)c2nc3cc(C#N)ccc3[nH]2)c2cc[nH]c12 (single isomer, unassigned; (+)) [67-D b) (+), (+)-2-(hydroxy(5-isopropyl-7-methyl-1H-indol-4-yl)methyl)-1H-benzo[d]imidazole-5-carbonitrile] | 3220 nM
9 | COc1cc(C)c2[nH]ccc2c1C(=O)c1nc2cc(C#N)ccc2[nH]1 [Example 25-B, 2-(5-Methoxy-7-methyl-1H-indole-4-carbonyl)-1H-benzo[d]imidazole-5-carbonitrile] | 810 nM
10 | Cc1cc(C)c2[nH]ccc2c1C(N)c1nc2ccc(C#N)cc2[nH]1 (single isomer, unassigned; (+)) [95-B b) (+), (+)-2-(amino(5,7-dimethyl-1H-indol-4-yl)methyl)benzo[d]imidazole-5-carbonitrile] | 2140 nM
11 | CNC(C)(c1nc2cc(C#N)ccc2[nH]1)c1c(OC)cc(C)c2[nH]ccc12 (single isomer, unassigned; (+)) [42-D b) (+), (+)-2-(1-(5-methoxy-7-methyl-1H-indol-4-yl)-1-(methylamino)ethyl)-1H-benzo[d]imidazole-5-carbonitrile] | 130 nM
12 | Cc1cc(OC(C)C)c(C(O)c2nc3cc(C#N)ccc3[nH]2)c2cc[nH]c12 (single isomer, unassigned; (-)) [24-D b) (−), (−)-2-(hydroxy(5-isopropoxy-7-methyl-1H-indol-4-yl)methyl)-1H-benzo[d]imidazole-5-carbonitrile] | 490 nM
13 | Cc1cc(Cl)c(C(O)c2nc3cc(C#N)ccc3[nH]2)c2cc[nH]c12 (single isomer, unassigned; (-)) [67-E b) (−), (−)-2-((5-chloro-7-methyl-1H-indol-4-yl)(hydroxy)methyl)-1H-benzo[d]imidazole-5-carbonitrile] | 1180 nM
14 | COC(C)(c1nc2cc(C#N)ccc2[nH]1)c1c(C)cc(C)c2[nH]ccc12 (single isomer, unassigned; (+)) [84-B b) (+), (+)-2-(1-(5,7-dimethyl-1H-indol-4-yl)-1-methoxyethyl)-1H-benzo[d]imidazole-5-carbonitrile] | 710 nM
15 | COc1cc(C)c2[nH]ccc2c1C(C)(C)c1nc2cc(C#N)ccc2[nH]1 [Example 122-C, 2-(2-(5-Methoxy-7-methyl-1H-indol-4-yl)propan-2-yl)-1H-benzo[d]imidazole-5-carbonitrile] | 5 nM
16 | CCOCc1cc(C)c2[nH]ccc2c1C(O)c1nc2cc(C#N)ccc2[nH]1 (single isomer, unassigned; (+)) [66-D b) (+), (+)-2-((5-(ethoxymethyl)-7-methyl-1H-indol-4-yl)(hydroxy)methyl)-1H-benzo[d]imidazole-5-carbonitrile] | 30400 nM

Row | Structure (SMILES) | IC50
17 | CCc1cc(C)c2[nH]ccc2c1C(O)(c1nc2cc(C#N)ccc2[nH]1)C(F)(F)F (single isomer, unassigned; (-)) [80-C b) (−), (−)-2-(1-(5-ethyl-7-methyl-1H-indol-4-yl)-2,2,2-trifluoro-1-hydroxyethyl)-1H-benzo[d]imidazole-5-carbonitrile] | 10 nM
18 | COc1cc(C)c2[nH]ccc2c1C(c1nc2cc(C#N)ccc2[nH]1)(N(C)C)C(F)(F)F (racemic) [Example 38-C, (±)-2-(1-(Dimethylamino)-2,2,2-trifluoro-1-(5-methoxy-7-methyl-1H-indol-4-yl)ethyl)-1H-benzo[d]imidazole-5-carbonitrile] | 490 nM
19 | COc1cc(C)c2[nH]ccc2c1C(O)c1cc2ccc(C#N)cc2[nH]1 (racemic) [Example 135-C, (±)-2-(hydroxy(5-methoxy-7-methyl-1H-indol-4-yl)methyl)-1H-indole-6-carbonitrile] | 20 nM
20 | Cc1cc(C(C)C)c(C(O)c2nc3cc(C#N)ccc3[nH]2)c2cc[nH]c12 (single isomer, unassigned; (-)) [67-D b) (−), (−)-2-(hydroxy(5-isopropyl-7-methyl-1H-indol-4-yl)methyl)-1H-benzo[d]imidazole-5-carbonitrile] | 60 nM
21 | COC(c1nc2cc(C#N)ccc2[nH]1)(c1c(S(C)(=O)=O)cc(C)c2[nH]ccc12)C(F)(F)F (single isomer, unassigned; (+)) [15-D b) (+), (+)-2-(2,2,2-trifluoro-1-methoxy-1-(7-methyl-5-(methylsulfonyl)-1H-indol-4-yl)ethyl)-1H-benzo[d]imidazole-5-carbonitrile] | 32700 nM
22 | [2H]C([2H])([2H])Oc1cc(C)c2[nH]ccc2c1Cc1nc2cc(C#N)ccc2[nH]1 [Example 20-D] | 80 nM
23 | COC(C)(c1nc2cc(C#N)ccc2[nH]1)c1c(CC(C)C)cc(C)c2[nH]ccc12 (single isomer, unassigned; (-)) [84-E b) (−), (−)-2-(1-(5-isobutyl-7-methyl-1H-indol-4-yl)-1-methoxyethyl)-1H-benzo[d]imidazole-5-carbonitrile] | 260 nM
24 | Cc1cc(C)c2[nH]ccc2c1C(O)(c1nc2cc(C#N)ccc2[nH]1)C(F)(F)F (single isomer, unassigned; (+)) [80-D b) (+), (+)-2-(1-(5,7-dimethyl-1H-indol-4-yl)-2,2,2-trifluoro-1-hydroxyethyl)-1H-benzo[d]imidazole-5-carbonitrile] | 4330 nM
25 | CCc1cc(C)c2[nH]ccc2c1C(OC)(c1nc2cc(C#N)ccc2[nH]1)C(F)(F)F (single isomer, unassigned; (-)) [84-D b) (−), (−)-2-(1-(5-ethyl-7-methyl-1H-indol-4-yl)-2,2,2-trifluoro-1-methoxyethyl)-1H-benzo[d]imidazole-5-carbonitrile] | 8 nM
26 | COc1cc(C)c2[nH]ccc2c1C(C)(O)c1nc2cc(C#N)ccc2[nH]1 (racemic) [26-C b) (−), (−)-2-(1-hydroxy-1-(5-methoxy-7-methyl-1H-indol-4-yl)ethyl)-1H-benzo[d]imidazole-5-carbonitrile] | 80 nM
27 | CCOc1cc(C)c2[nH]ccc2c1C(C)(O)c1nc2cc(C#N)ccc2[nH]1 (single isomer, unassigned; (-)) [26-D b) (−), (−)-2-(1-(5-ethoxy-7-methyl-1H-indol-4-yl)-1-hydroxyethyl)-1H-benzo[d]imidazole-5-carbonitrile] | 440 nM
28 | CC(=O)NCc1cc(C)c2[nH]ccc2c1Cc1nc2cc(C#N)ccc2[nH]1 [Example 61, N-((4-((5-cyano-1H-benzo[d]imidazol-2-yl)methyl)-7-methyl-1H-indol-5-yl)methyl)acetamide] | 6620 nM
29 | COc1cc(C)c2[nH]ccc2c1C(OCC(=O)O)(c1nc2cc(C#N)ccc2[nH]1)C(F)(F)F (single isomer, unassigned; (-)) [35-C (−), (−)-2-(1-(5-cyano-1H-benzo[d]imidazol-2-yl)-2,2,2-trifluoro-1-(5-methoxy-7-methyl-1H-indol-4-yl)ethoxy)acetic acid] | 40 nM
30 | CNC(c1nc2cc(C#N)ccc2[nH]1)c1c(C)cc(C)c2[nH]ccc12 (racemic) [Example 98-B, (±)-2-((5,7-Dimethyl-1H-indol-4-yl)(methylamino)methyl)-1H-benzo[d]imidazole-5-carbonitrile] | 560 nM
31 | Cc1cc(C)c2[nH]cc(-c3cccnc3)c2c1C(O)c1nc2cc(C#N)ccc2[nH]1 (single isomer, unassigned) [120 b) (tr = 2.25 min), (+)- or (−)-2-((5,7-dimethyl-3-(pyridin-3-yl)-1H-indol-4-yl)(hydroxy)methyl)-1H-benzo[d]imidazole-5-carbonitrile] | 120 nM
32 | COCCOC(c1nc2cc(C#N)ccc2[nH]1)c1c(C)cc(C)c2[nH]ccc12 (racemic) [Example 74, (±)-2-((5,7-Dimethyl-1H-indol-4-yl)(2-methoxyethoxy)methyl)benzo[d]imidazole-5-carbonitrile] | 1870 nM
